Earlier results in US20080237028A1, “Nucleation in liquid, methods of use thereof and methods of generation thereof” (Hanoch KISLEV, priority 2006, published 2008).
In brackets after ≈: the same amount, converted by molar mass.

Experiments:
[1] = system: β-lactamase negative strain of Klebsiella pneumoniae; conditions: planktonic
[2] = system: β-lactamase negative strain of Klebsiella pneumoniae grown as a biofilm
[3] = system: biofilms of wild-type Pseudomonas aeruginosa; conditions: compared to equivalent bacteria lacking ability to generate biofilm
[4] = system: biofilm forming P. aeroginosa bacteria; conditions: mature biofilm grown from bacteria treated with quorum sensing molecules; not in the untreated sample

Structure (SMILES): CC1(C)S[C@@H]2[C@H](NC(=O)[C@H](N)c3ccccc3)C(=O)N2[C@H]1C(=O)O [Ampicillin]
- minimum inhibitory concentration (MIC) [1]: 2 µg/mL (≈ 5.72 µM)
- increase in MIC ([2]; biofilm versus planktonic, 5000 μg/mL): 2500 fold
- survival of biofilm under treatment ([2]; treated for 4 hours with 5000 μg/mL ampicillin): survives well

Structure (SMILES): OCl [sodium hypochlorite]
- concentration increase required to kill biofilms [3]: 600 fold

Structure (SMILES): NC[C@H]1O[C@H](O[C@H]2[C@H](O)[C@@H](O[C@H]3O[C@H](CO)[C@@H](O)[C@H](N)[C@H]3O)[C@H](N)C[C@@H]2N)[C@H](N)C[C@@H]1O [tobramicyn]
- bacteria death within biofilm [4]: complete bacteria death
